From PMC9758846, “Dinuclear and mononuclear metal(II) polypyridyl complexes against drug-sensitive and drug-resistant Plasmodium falciparum and their mode of action” (Malaria Journal, 2022)
Values joined by “and” are separate entries in the source; they are usually repeats but may differ in a detail not shown here. Equal entries are not always repeated. Where two headings read alike, the source gives them in different places.

Assays:
[1] = PNDA assay of •OH radicals from reaction with H2O2; conditions: for Concentration of •OH radical: 30 µM compound with excess H2O2; for Generation of ·OH radicals (in words): equimolar test compound with excess H2O2
Description: A previously reported spectrometric assay using PNDA was used to quantify the amount of reactive oxygen species (ROS), viz. •OH radicals, produced by the reaction of metal(II) complexes with hydrogen peroxide in borate buffer at pH 7.5 [24–26]. The percentage of PNDA bleaching and the concentration of •OH produced were determined.

[2] = tested on: B+ blood red blood cells (RBC); assay: In vitro haemolytic assay; assay type: cell-based, human; conditions: 72 h
Description: Fresh B+ blood was washed with RPMI1640 medium containing of 30 µg/mL gentamicin (Gibco) and centrifuged at 1000 xg for 10 min three times. The percentage of haemolysis was determined spectroscopically using 5% haematocrit containing test compound at increasing concentration and incubated for 72 h at 37 °C [19, 20]. Untreated blood acted as negative control while blood treated with sterile distilled water acted as positive control (for 100% haemolysis).

[3] = tested on: Plasmodium falciparum 3D7 (Pf3D7); assay: In vitro anti-malarial activity using SYBR Green I nucleic acid dye; assay type: cell-based; conditions: 72 h incubation, read-out: IC50 of Pf3D7
Description: (§1) The drug-sensitive strain of P. falciparum 3D7 (Pf3D7) was obtained from the Department of Science, Monash University, Malaysia and cultured as previously described. The artemisinin-resistant strain of P. falciparum IPC5202 (Pf5202) was obtained from BEI Resources and cultured as mentioned in the product sheet. Both strains were maintained in sealed flask at 37 °C in a humidified atmosphere of 5% O2, 5% CO2 and 90% N2. All buffer stock solutions for biological assays were autoclaved at 121 °C for 15 min.
(§2) Previously reported anti-malarial assay was used with slight modification using 1% parasitaemia (ring-stage) and 5% haematocrit treated with test compounds at increasing concentration and incubated for 72 h at 37 °C [21–23]. After the incubation, the assay was terminated by freeze/thaw cycle (− 80 °C overnight before thawing for 2 h) before the addition of lysis buffer containing SYBR Green I dye into each well and mixed thoroughly using the belly dancer for 30 min in the dark. Chloroquine diphosphate salt and artemisinin were used as standard drugs. The fluorescence signal was quantified at 485 nm excitation wavelength and 528 nm emission wavelength. IC50 values of each test compound was determined from a dose response curve by non-linear regression analysis.

[4] = tested on: Plasmodium falciparum IPC5202 (Pf5202); assay: as above; assay type: cell-based; conditions: 72 h incubation, read-out: IC50 of Pf5202
Description: as §1, §2

[5] = target: Pf3D7 20S proteasome trypsin-like (T-L) site (Plasmodium falciparum, UniProt Q8I6T3); assay: 20S proteasome inhibition assay using parasite lysate; assay type: biochemical; conditions: Boc-LRR-AMC, 30 min
Description: (§3) To harvest P. falciparum parasites, intraerythrocytic Pf3D7 and Pf5202 were collected in trophozoite and early schizont stages. Red blood cells were lysed in 0.15% (w/v) saponin lysis buffer for 10 min at 37 °C. After lysis, the parasite pellet was washed once with PBS buffer by centrifuging at 1600 rpm for 5 min. Saponin lysis buffer was added once again to remove all the red blood cells for 10 min at 37 °C, followed by washing with PBS twice and immediately used or kept at − 80 °C. To prepare parasite lysates for proteasome purification, parasite pellet was resuspended with 100 µl of pre-cooled Pierce™ RIPA buffer. A mild protein extraction method was used to prepare parasite extracts. The resuspended parasites were passed 20 times through a needle with a diameter of 0.4 mm in a syringe on ice to lyse the parasite. After 15 min centrifugation at 13,000 xg at 4 °C, the supernatant was removed. Protein concentration was determined by the Bradford assay. The activities of 3 proteolytic sites were determined by fluorescence assay using fluorogenic peptide substrates (Suc-LLVY-AMC for chymotrypsin-like, Boc-LRR-AMC for trypsin-like and Suc-LLE-AMC for caspase-like) Proteasome activities were determined by monitoring the substrate hydrolysis for 30 min at 37 °C with 340 nm excitation and 465 nm emission wavelength. Activity of each proteolytic site were calculated, and the IC50 values were determined from the non-linear regression analysis. VR23 proteasome inhibitor was used as positive control.

[6] = target: Pf5202 20S proteasome chymotrypsin-like (CT-L) site (Plasmodium falciparum, UniProt Q8IJT1); assay: as above; assay type: biochemical; conditions: Suc-LLVY-AMC, 30 min
Description: as §3

[7] = target: Pf3D7 20S proteasome caspase-like (C-L) site (Plasmodium falciparum, UniProt Q8I0U7); assay: as above; assay type: biochemical; conditions: Suc-LLE-AMC, 30 min
Description: as §3

[8] = target: Pf5202 20S proteasome caspase-like (C-L) site (Plasmodium falciparum, UniProt Q8I0U7); assay: as above; assay type: biochemical; conditions: Suc-LLE-AMC, 30 min
Description: as §3

[9] = target: Pf3D7 20S proteasome chymotrypsin-like (CT-L) site (Plasmodium falciparum, UniProt Q8IJT1); assay: as above; assay type: biochemical; conditions: Suc-LLVY-AMC, 30 min
Description: as §3

[10] = target: Pf5202 20S proteasome trypsin-like (T-L) site (Plasmodium falciparum, UniProt Q8I6T3); assay: as above; assay type: biochemical; conditions: for IC50: parasite lysate, Boc-LRR-AMC, 30 min
Description: as §3

Pf5202 = assay: Intracellular ROS level using DCFH-DA; assay type: cell-based, Plasmodium falciparum
Description: (§4) After incubation, packed cells were washed with phosphate buffer saline (PBS) solution. […] The data was expressed as fold change between amount of ROS produced by treated P. falciparum against untreated P. falciparum. Normalization was done with the percentage of parasite viability obtained at each condition. Hydrogen peroxide was used as positive control.

Pf3D7 = assay: Intracellular ROS level using DCFH-DA; assay type: cell-based, Plasmodium falciparum
Description: as §4

Chain of Pf3D7 20S proteasome trypsin-like (T-L) site (Q8I6T3 entry or part of it): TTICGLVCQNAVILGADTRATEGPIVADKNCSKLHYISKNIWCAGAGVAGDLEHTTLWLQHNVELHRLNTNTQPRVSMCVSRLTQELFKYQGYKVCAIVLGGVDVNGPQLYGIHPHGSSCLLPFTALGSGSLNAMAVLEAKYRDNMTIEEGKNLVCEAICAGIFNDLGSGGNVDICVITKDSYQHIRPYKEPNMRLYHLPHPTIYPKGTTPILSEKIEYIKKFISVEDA
Chain of Pf3D7 20S proteasome caspase-like (C-L) site (Q8I6T3 entry or part of it): as above
Chain of Pf3D7 20S proteasome caspase-like (C-L) site (Q8I0U7 entry or part of it): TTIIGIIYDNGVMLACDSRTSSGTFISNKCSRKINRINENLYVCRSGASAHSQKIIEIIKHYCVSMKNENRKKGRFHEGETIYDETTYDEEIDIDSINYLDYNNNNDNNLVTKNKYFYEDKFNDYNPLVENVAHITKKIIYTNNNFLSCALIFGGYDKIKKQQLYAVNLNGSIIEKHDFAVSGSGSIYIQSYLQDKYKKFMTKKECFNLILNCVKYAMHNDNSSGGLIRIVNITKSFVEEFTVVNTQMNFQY
Chain of Pf5202 20S proteasome trypsin-like (T-L) site (Q8I6T3 entry or part of it): as the sequence (Q8I6T3 entry or part of it) above
Chain of Pf3D7 20S proteasome chymotrypsin-like (CT-L) site (Q8IJT1 entry or part of it): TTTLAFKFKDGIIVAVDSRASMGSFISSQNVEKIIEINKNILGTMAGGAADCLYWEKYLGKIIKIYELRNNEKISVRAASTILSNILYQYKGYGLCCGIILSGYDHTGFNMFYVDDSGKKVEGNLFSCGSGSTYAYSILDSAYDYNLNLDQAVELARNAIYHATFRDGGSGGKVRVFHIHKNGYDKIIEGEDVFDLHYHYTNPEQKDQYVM
Chain of Pf5202 20S proteasome chymotrypsin-like (CT-L) site (Q8IJT1 entry or part of it): as above
Chain of Pf5202 20S proteasome caspase-like (C-L) site (Q8I0U7 entry or part of it): as the sequence (Q8I0U7 entry or part of it) above
Chain of Pf5202 20S proteasome caspase-like (C-L) site (Q8I6T3 entry or part of it, further chain): as the sequence (Q8I6T3 entry or part of it) above

Row | Compound | Concentration of •OH radical ([1]; 24 h) [µM] | Concentration of •OH radical ([1]; 48 h) [µM] | Concentration of •OH radical ([1]; 72 h) [µM] | IC50 [3] | IC50 [4] [µM] | IC50 [5] [µM] | IC50 [6] [µM] | IC50 [7] [µM] | IC50 [8] [µM] | IC50 [9] [µM] | IC50 [10] [µM] | Generation of ·OH radicals (in words) [1] | fold change in ROS (Pf5202; 24 h, 1.0 µM) [fold] | fold change in ROS (Pf5202; 48 h, 5.0 µM) [fold] | fold change in ROS (Pf5202; 48 h, 25.0 µM) [fold] | fold change in ROS (Pf5202; 72 h, 1.0 µM) [fold] | fold change in ROS (Pf5202; 72 h, 5.0 µM) [fold] | fold change in ROS (Pf5202; 72 h, 25.0 µM) [fold] | fold change in ROS (Pf3D7; 48 h, 0.2 µM) [fold] | fold change in ROS (Pf3D7; 48 h, 1.0 µM) [fold] | further results
1 | O.O.O.O=[N+]([O-])[O-].O=[N+]([O-])[O-].[Cu+2] [Cu(NO3)2·3H2O, Copper(II) nitrate trihydrate, reference compound] | 36.29 ± 1.80 | 33.20 ± 1.62 | 29.82 ± 1.60 | 46.1 ± 4.29 µM | 49.4 ± 2.3 |  |  |  |  |  |  |  |  |  |  |  |  |  |  |  | Concentration of •OH radical ([1]; 2 h): 14.59 ± 2.39 µM; Concentration of •OH radical ([1]; 4 h): 19.27 ± 2.36 µM; Percentage of haemolysis (haemolytic index, HI) ([2]; 1 µM, B+ blood): 3%; IC50 ([3]; listed as copper(II) nitrate): ~46 µM; IC50 ([4]; listed as copper(II) nitrate): ~49 µM
2 | O=[N+]([O-])c1ccc(S(=O)(=O)N2CCN(c3ccnc4cc(Cl)ccc34)CC2)c([N+](=O)[O-])c1 [VR23, reference compound] |  |  |  |  |  | 0.78 ± 0.11 | > 5 | > 5 | > 5 | > 5 | 0.86 ± 0.09 |  |  |  |  |  |  |  |  |  | 
3 | O.O.O.O.O.O.O=[N+]([O-])[O-].O=[N+]([O-])[O-].[Zn+2] [Zn(NO3)2·6H2O, Zinc(II) nitrate hexahydrate] |  |  |  | > 100 µM | > 100 |  |  |  |  |  |  | did not generate any ·OH radicals |  |  |  |  |  |  |  |  | 
4 | c1cnc2c(c1)ccc1cccnc12 [phen, 1,10-phenanthroline, reference compound] | 0.15 ± 0.07 | 0.36 ± 0.17 | 0.30 ± 0.23 |  |  | 4.47 ± 0.6 |  | > 25 |  |  | 1.79 ± 0.66 | did not generate any ·OH radicals | 1.08 ± 0.09 | 1.40 ± 0.13 | 1.32 ± 0.31 | 1.17 ± 0.44 | 1.08 ± 0.51 | 1.21 ± 1.25 | 3.10 ± 0.98 | 2.91 ± 0.05 | fold change in ROS (Pf5202; 24 h, 0.2 µM): 1.06 ± 0.06 fold; fold change in ROS (Pf5202; 24 h, 5.0 µM): 0.91 ± 0.05 fold; fold change in ROS (Pf5202; 24 h, 25.0 µM): 0.80 ± 0.04 fold; fold change in ROS (Pf5202; 48 h, 0.2 µM): 1.78 ± 0.78 fold; fold change in ROS (Pf5202; 48 h, 1.0 µM): 1.31 ± 0.21 fold; fold change in ROS (Pf5202; 72 h, 0.2 µM): 1.35 ± 0.71 fold; fold change in ROS (Pf3D7; 48 h, 5.0 µM): 4.47 ± 0.71 fold; fold change in ROS (Pf3D7; 48 h, 25.0 µM): 6.09 ± 0.91 fold; IC50 ([3]; Plasmodium falciparum, 3D7): 4.27 ± 0.05 µM; IC50 ([4]; Plasmodium falciparum): > 100 µM; Factor by which T-L site of Pf5202 is inhibited better than that of Pf3D7 ([10]; ratio of T-L IC50 values): about 2.5 ×
5 | [Zn(phen)(NO3)-4,4′-bipy-Zn(phen)(NO3)](NO3)2·2H2O [Complex 4] |  |  |  | 3.9 µM and 3.93 µM | > 100 | > 25 | > 25 | > 25 | > 25 | > 25 | > 25 | did not generate any ·OH radicals | 0.44 ± 0.25 | 0.43 ± 0.09 | 0.39 ± 0.36 | 0.45 ± 0.32 | 0.33 ± 0.01 | 0.13 ± 0.05 | 0.52 ± 0.26 | 0.77 ± 0.58 | fold change in ROS (Pf3D7; 24 h, 25.0 µM): 0.31 ± 0.31 fold; fold change in ROS (Pf3D7; 48 h, 5.0 µM): 0.85 ± 0.40 fold; fold change in ROS (Pf3D7; 48 h, 25.0 µM): 0.42 ± 0.19 fold; fold change in ROS (Pf3D7; 72 h, 0.2 µM): 1.52 ± 0.07 fold; fold change in ROS (Pf3D7; 72 h, 1.0 µM): 1.52 ± 0.14 fold; fold change in ROS (Pf3D7; 72 h, 5.0 µM): 1.85 ± 0.27 fold; fold change in ROS (Pf3D7; 72 h, 25.0 µM): 1.19 ± 0.57 fold; Haemolysis on B+ blood (in words) ([2]; up to 25 µM): no haemolysis
